Experimental data as given in US9242970B2 (ACTELION PHARMACEUTICALS LTD., priority 2010, dated 2016).

What was measured:
rat [1] = details: cited from earlier work
rat [2] = details: rat model; cited from earlier work
rat [3] = details: cited from earlier work; remark: listed apart in the source
human orexin-1 receptor = human orexin-1 receptor (Homo sapiens (Human), UniProt O43613); experiment: In vitro assay: intracellular calcium measurements (FLIPR), antagonistic activity; assay type: cell-based; details: CHO cells, 3 nM orexin-A, compound incubation 120 min; marked values are geometric means of n = 2-6; read-out: IC50 OX1
human orexin-1 receptor, sequence (O43613 whole entry): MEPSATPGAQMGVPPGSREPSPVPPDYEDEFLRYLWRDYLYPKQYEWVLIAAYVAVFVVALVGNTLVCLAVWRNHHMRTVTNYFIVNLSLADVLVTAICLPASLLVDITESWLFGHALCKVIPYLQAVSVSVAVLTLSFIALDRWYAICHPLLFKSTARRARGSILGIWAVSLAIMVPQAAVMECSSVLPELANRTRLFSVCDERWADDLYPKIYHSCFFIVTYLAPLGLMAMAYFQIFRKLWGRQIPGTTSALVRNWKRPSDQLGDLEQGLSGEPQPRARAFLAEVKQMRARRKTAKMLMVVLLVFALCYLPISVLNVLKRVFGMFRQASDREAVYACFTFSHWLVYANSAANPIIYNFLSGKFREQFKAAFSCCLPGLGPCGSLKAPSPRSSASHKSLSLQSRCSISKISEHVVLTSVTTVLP

human orexin-2 receptor = human orexin-2 receptor (Homo sapiens (Human), UniProt O43614); experiment: as above; assay type: cell-based; details: CHO cells, 3 nM orexin-A, compound incubation 120 min; marked values are geometric means of n = 2-6; read-out: IC50 OX2
human orexin-2 receptor, sequence (O43614 whole entry): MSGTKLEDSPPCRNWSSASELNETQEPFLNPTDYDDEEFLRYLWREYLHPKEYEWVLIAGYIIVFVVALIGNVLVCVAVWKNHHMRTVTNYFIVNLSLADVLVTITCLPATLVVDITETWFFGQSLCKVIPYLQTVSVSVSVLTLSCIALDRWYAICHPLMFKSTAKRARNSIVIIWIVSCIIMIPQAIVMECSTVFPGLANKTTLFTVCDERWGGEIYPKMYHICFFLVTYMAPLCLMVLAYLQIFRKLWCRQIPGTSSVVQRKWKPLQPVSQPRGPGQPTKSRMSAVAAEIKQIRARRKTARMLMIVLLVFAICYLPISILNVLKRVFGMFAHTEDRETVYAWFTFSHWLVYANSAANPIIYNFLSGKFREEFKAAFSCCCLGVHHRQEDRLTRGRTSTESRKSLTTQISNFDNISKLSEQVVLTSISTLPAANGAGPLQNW

Compound: CNC(=O)[C@@H](c1ccccc1)N1CCc2cc(OC)c(OC)cc2[C@@H]1CCc1ccc(C(F)(F)F)cc1 [(2R)-2-{(1S)-6,7-dimethoxy-1-[2-(4-trifluoromethyl-phenyl)-ethyl]-3,4-dihydro-1H-isoquinolin-2-yl}-N-methyl-2-phenyl-acetamide]
- alertness (active wake and locomotion) (rat [1]): decrease alertness
- time spent in REM and NREM sleep (rat [1]): dose-dependently increase the time spent in both REM and NREM sleep
- memory function (rat [2]): enhance memory function
- activity in post-traumatic stress disorder model (rat [3]): active

Compound: COc1cccc(OC)c1C1CC(C)C(=O)N1Cc1cccc(OC(F)(F)C(F)F)c1 (stereo not shown) [Example 424, 5-(2,6-dimethoxyphenyl)-3-methyl-1-(3-(1,1,2,2-tetrafluoroethoxy)benzyl)pyrrolidin-2-one]
- IC50 (human orexin-1 receptor): 27 nM
- IC50 (human orexin-2 receptor): 13 nM

Compound: COc1cc(CN2C(=O)C(C)CC2c2c(OC)cccc2OC)ccc1OC(F)F (stereo not shown) [Example 425, 1-(4-(difluoromethoxy)-3-methoxybenzyl)-5-(2,6-dimethoxyphenyl)-3-methylpyrrolidin-2-one]
- IC50 (human orexin-1 receptor): 311 nM
- IC50 (human orexin-2 receptor): 235 nM

Compound: COc1cccc(OC)c1C1CC(C)C(=O)N1Cc1ccc2sc3ccccc3c2c1 (stereo not shown) [Example 426, 1-(dibenzo[b,d]thiophen-2-ylmethyl)-5-(2,6-dimethoxyphenyl)-3-methylpyrrolidin-2-one]
- IC50 (human orexin-1 receptor): 6 nM
- IC50 (human orexin-2 receptor): 8 nM

Compound: COc1ccc2nc(C)oc2c1C1CCCC(=O)N1Cc1cccc(-c2ccccc2)c1 (stereo not shown) [Example 440, 1-([1,1′-biphenyl]-3-ylmethyl)-6-(6-methoxy-2-methylbenzo[d]oxazol-7-yl)piperidin-2-one]
- IC50 (human orexin-1 receptor): 46 nM
- IC50 (human orexin-2 receptor): 91 nM

Compound: COc1ccc2nc(C)oc2c1C1CCCC(=O)N1Cc1cccc(-c2csc(C)n2)c1 (stereo not shown) [Example 441, 6-(6-methoxy-2-methylbenzo[d]oxazol-7-yl)-1-(3-(2-methylthiazol-4-yl)benzyl)piperidin-2-one]
- IC50 (human orexin-1 receptor): 16 nM
- IC50 (human orexin-2 receptor): 62 nM

Compound: CCc1nc2ccc(OC)c(C3CCCC(=O)N3Cc3cccc(-c4csc(C)n4)c3)c2o1 (stereo not shown) [Example 442, 6-(2-ethyl-6-methoxybenzo[d]oxazol-7-yl)-1-(3-(2-methylthiazol-4-yl)benzyl)piperidin-2-one]
- IC50 (human orexin-1 receptor): 10 nM
- IC50 (human orexin-2 receptor): 33 nM

Compound: COc1ccc2c(c1C1CCCC(=O)N1Cc1cccc(-c3csc(C)n3)c1)OCCO2 (stereo not shown) [Example 443, 6-(6-methoxy-2,3-dihydrobenzo[b][1,4]dioxin-5-yl)-1-(3-(2-methylthiazol-4-yl)benzyl)piperidin-2-one]
- IC50 (human orexin-1 receptor): 5 nM
- IC50 (human orexin-2 receptor): 13 nM

Compound: COc1ccc2c(c1C1CCCC(=O)N1Cc1cccc(-c3ncc(C)s3)c1)OCCO2 (stereo not shown) [Example 444, 6-(6-methoxy-2,3-dihydrobenzo[b][1,4]dioxin-5-yl)-1-(3-(5-methylthiazol-2-yl)benzyl)piperidin-2-one]
- IC50 (human orexin-1 receptor): 7 nM
- IC50 (human orexin-2 receptor): 8 nM

Compound: COc1ccc2ccccc2c1C1CCCC(=O)N1Cc1cccc(-c2ncccn2)c1 (stereo not shown) [Example 445, 6-(2-methoxynaphthalen-1-yl)-1-(3-(pyrimidin-2-yl)benzyl)piperidin-2-one]
- IC50 (human orexin-1 receptor): 21 nM
- IC50 (human orexin-2 receptor): 90 nM

Compound: COc1ccc2ccccc2c1C1CCCC(=O)N1Cc1cccc(-c2ncc(C)s2)c1 (stereo not shown) [Example 446, 6-(2-methoxynaphthalen-1-yl)-1-(3-(5-methylthiazol-2-yl)benzyl)piperidin-2-one]
- IC50 (human orexin-1 receptor): 12 nM
- IC50 (human orexin-2 receptor): 59 nM

Compound: COc1ccc2ccccc2c1C1CCCC(=O)N1Cc1cccc(Oc2ccccc2)c1 (stereo not shown) [Example 447, 6-(2-methoxynaphthalen-1-yl)-1-(3-phenoxybenzyl)piperidin-2-one]
- IC50 (human orexin-1 receptor): 112 nM
- IC50 (human orexin-2 receptor): 92 nM

Compound: COc1ccc2c(c1C1CCCC(=O)N1Cc1cccc(-c3csc(C)n3)c1)OCO2 (stereo not shown) [Example 448, 6-(5-methoxybenzo[d][1,3]dioxol-4-yl)-1-(3-(2-methylthiazol-4-yl)benzyl)piperidin-2-one]
- IC50 (human orexin-1 receptor): 17 nM
- IC50 (human orexin-2 receptor): 11 nM

Compound: COc1ccc2c(c1C1CCCC(=O)N1Cc1ccc(OC(F)(F)F)cc1)OCO2 (stereo not shown) [Example 449, 6-(5-methoxybenzo[d][1,3]dioxol-4-yl)-1-(4-(trifluoromethoxy)benzyl)piperidin-2-one]
- IC50 (human orexin-1 receptor): 351 nM
- IC50 (human orexin-2 receptor): 23 nM

Compound: O=C1CCCCC(c2ccccc2-c2ccncc2)N1Cc1cccc(-c2nccs2)c1 (stereo not shown) [Example 450, 7-(2-(pyridin-4-yl)phenyl)-1-(3-(thiazol-2-yl)benzyl)azepan-2-one]
- IC50 (human orexin-1 receptor): 561 nM
- IC50 (human orexin-2 receptor): 15 nM

Compound: O=C1CCCCC(c2ccccc2-c2cncs2)N1Cc1cccc(-c2nccs2)c1 (stereo not shown) [Example 451, 1-(3-(thiazol-2-yl)benzyl)-7-(2-(thiazol-5-yl)phenyl)azepan-2-one]
- IC50 (human orexin-1 receptor): 427 nM
- IC50 (human orexin-2 receptor): 19 nM

Compound: O=C1CCCCC(c2ccccc2-c2cscn2)N1Cc1cccc(-c2nccs2)c1 (stereo not shown) [Example 452, 1-(3-(thiazol-2-yl)benzyl)-7-(2-(thiazol-4-yl)phenyl)azepan-2-one]
- IC50 (human orexin-1 receptor): 105 nM
- IC50 (human orexin-2 receptor): 15 nM

Compound: O=C1CCCCC(c2ccccc2-c2cccnc2)N1Cc1cccc(-c2nccs2)c1 (stereo not shown) [Example 453, 7-(2-(pyridin-3-yl)phenyl)-1-(3-(thiazol-2-yl)benzyl)azepan-2-one]
- IC50 (human orexin-1 receptor): 381 nM
- IC50 (human orexin-2 receptor): 93 nM

Compound: O=C1CCCCC(c2ccccc2-c2ccccc2)N1Cc1cccc(-c2nccs2)c1 (stereo not shown) [Example 454, 7-([1,1′-biphenyl]-2-yl)-1-(3-(thiazol-2-yl)benzyl)azepan-2-one]
- IC50 (human orexin-1 receptor): 182 nM
- IC50 (human orexin-2 receptor): 77 nM

Compound: COc1ccc2ncoc2c1C1CCCC(=O)N1Cc1cccc(-c2csc(C)n2)c1 (stereo not shown) [Example 455, 6-(6-methoxybenzo[d]oxazol-7-yl)-1-(3-(2-methylthiazol-4-yl)benzyl)piperidin-2-one]
- IC50 (human orexin-1 receptor): 57 nM
- IC50 (human orexin-2 receptor): 102 nM

Compound: O=C1CCCC(c2ccnn2-c2ccccc2)N1Cc1cccc(-c2ccccc2)c1 (stereo not shown) [Example 456, 1-([1,1′-biphenyl]-3-ylmethyl)-6-(1-phenyl-1H-pyrazol-5-yl)piperidin-2-one]
- IC50 (human orexin-1 receptor): 654 nM
- IC50 (human orexin-2 receptor): 716 nM

Compound: COc1ccc2c(c1C1CCCC(=O)N1Cc1cccc(-c3ccccc3)c1)OCO2 (stereo not shown) [Example 457, 1-([1,1′-biphenyl]-3-ylmethyl)-6-(5-methoxybenzo[d][1,3]dioxol-4-yl)piperidin-2-one]
- IC50 (human orexin-1 receptor): 59 nM
- IC50 (human orexin-2 receptor): 30 nM

Compound: COc1ccc2c(c1C1CCCC(=O)N1Cc1cccc(Oc3ccccc3)c1)OCO2 (stereo not shown) [Example 458, 6-(5-methoxybenzo[d][1,3]dioxol-4-yl)-1-(3-phenoxybenzyl)piperidin-2-one]
- IC50 (human orexin-1 receptor): 142 nM
- IC50 (human orexin-2 receptor): 14 nM

Compound: COc1ccc2c(c1C1CCCC(=O)N1Cc1csc(-c3ccccc3)n1)OCO2 (stereo not shown) [Example 459, 6-(5-methoxybenzo[d][1,3]dioxol-4-yl)-1-((2-phenylthiazol-4-yl)methyl)piperidin-2-one]
- IC50 (human orexin-1 receptor): 108 nM
- IC50 (human orexin-2 receptor): 40 nM

Compound: rac-(3R*,5S*)-(3-chloro-4-(trifluoromethoxy)benzyl)-5-(2-ethoxy-6-fluorophenyl)-3-hydroxypyrrolidin-2-one [Example 429]
- IC50 (human orexin-1 receptor): 1160 nM
- IC50 (human orexin-2 receptor): 15 nM
